US8129355B2, “Ketone ligands for modulating the expression of exogenous genes via an ecdysone receptor complex” (priority 2002, dated 2012)
Where two headings read alike, the source gives them in different places.

Legend:
[1] = target: T1, Bombyx mori EcR (VP16 fusion, switch construct CVBE) with 6XEcRE LacZ reporter (Bombyx mori, UniProt P49881); test: Z3 assay: β-galactosidase (LacZ) reporter gene fold induction in stably transformed human 293 kidney cells (clone Z3); type: cell-based; settings: for Fold Induction Average, Z3 Assay (33 μM): single dose 33 μM, ligand treated / DMSO treated cells; for CC50: average, dose response, three-parameter logistic model, read-out: Z3 LC50; for Z3 Rel Max FI: maximum fold induction at any concentration relative to that of GS-E ligand
T1 construct: expressed in transfected cells; host or cells: Human 293 kidney (HEK-293) cells, retrovirally infected, clone Z3
T1 sequence (P49881 86-606 limits assumed): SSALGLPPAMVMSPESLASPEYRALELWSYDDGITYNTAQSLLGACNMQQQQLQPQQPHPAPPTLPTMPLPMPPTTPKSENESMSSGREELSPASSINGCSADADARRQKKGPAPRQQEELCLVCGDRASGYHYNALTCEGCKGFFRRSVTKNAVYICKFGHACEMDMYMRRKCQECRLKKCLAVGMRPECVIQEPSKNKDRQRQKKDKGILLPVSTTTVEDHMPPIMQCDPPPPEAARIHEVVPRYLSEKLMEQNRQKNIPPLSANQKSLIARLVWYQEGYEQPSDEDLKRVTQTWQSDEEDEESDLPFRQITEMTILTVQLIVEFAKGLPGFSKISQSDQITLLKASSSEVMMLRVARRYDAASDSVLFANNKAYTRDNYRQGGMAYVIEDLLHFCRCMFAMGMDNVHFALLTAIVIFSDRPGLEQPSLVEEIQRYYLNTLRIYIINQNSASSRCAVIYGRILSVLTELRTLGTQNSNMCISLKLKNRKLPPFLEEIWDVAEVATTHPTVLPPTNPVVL
T1 sequence (P19793 1-462 partner): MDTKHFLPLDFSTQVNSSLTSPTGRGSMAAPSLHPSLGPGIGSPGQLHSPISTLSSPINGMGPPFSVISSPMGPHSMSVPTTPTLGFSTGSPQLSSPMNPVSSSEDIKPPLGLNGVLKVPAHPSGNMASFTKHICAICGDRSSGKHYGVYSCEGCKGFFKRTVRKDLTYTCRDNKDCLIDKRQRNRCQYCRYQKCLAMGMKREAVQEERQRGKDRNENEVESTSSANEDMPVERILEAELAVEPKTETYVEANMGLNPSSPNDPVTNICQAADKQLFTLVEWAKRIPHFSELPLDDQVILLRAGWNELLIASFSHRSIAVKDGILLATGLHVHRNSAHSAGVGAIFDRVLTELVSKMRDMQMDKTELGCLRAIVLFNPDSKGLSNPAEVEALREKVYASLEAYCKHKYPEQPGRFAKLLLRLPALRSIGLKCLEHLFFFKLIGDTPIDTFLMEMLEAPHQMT
From the text: Dr. F. Gage provided a population of stably transformed cells containing CVBE and 6XEcRE as described in Suhr, S. T., Gil, E. B., Senut M. C., Gage, F. H. (1998) Proc. Natl. Acad. Sci. USA 95, 7999-804. Human 293 kidney cells, also referred to as HEK-293 cells, were sequentially infected with retroviral vectors encoding first the switch construct CVBE, and subsequently the reporter construct 6XEcRE Lac Z. The switch construct contained the coding sequence for amino acids 26-546 from Bombyx mori EcR (BE) (Iatrou) inserted in frame and downstream of the VP16 transactivation domain (VBE). A synthetic ATG start codon was placed under the control of cytomegalovirus (CVBE) immediate early promoter and flanked by long terminal repeats (LTR). The reporter construct contained six copies of the ecdysone response element (EcRE) binding site placed upstream of LacZ and flanked on both sides with LTR sequences (6XEcRE).
Dilution cloning was used to isolate individual clones. Clones were selected using 450 ug/mL G418 and 100 ng/mL puromycin. Individual clones were evaluated based on their response in the presence and absence of test ligands. Clone Z3 was selected for screening and SAR purposes.
Human 293 kidney cells stably transformed with CVBE and 6XEcRE lack were maintained in Minimum Essential Medium (Mediates, 10-010-CV) containing 10% FBS (Life Technologies, 26140-087), […] G418 (Mediates, 30-234-CR), and […] (Sigma, P-7255), at 37° C. in an atmosphere containing 5% CO2 and were subculture when they reached 75% confluence.
Z3 cells were seeded into 96-well tissue culture plates at a concentration of 2.5×10^3 cells per well and incubated at 37° C. in 5% CO2 for twenty-four hours. Stock solutions of ligands were prepared in DMSO. Ligand stock solutions were diluted 100 fold in media and 50 μL of this diluted ligand solution (33 μM) was added to cells. The final concentration of DMSO was maintained at […] in both controls and treatments.
Reporter gene expression was evaluated 48 hours after treatment of cells, β-galactosidase activity was measured using Gal Screen™ bioluminescent reporter gene assay system from Tropix (GSY1000).
Flanking both constructs are long terminal repeats, G418 and puromycin are selectable markers, CMV is the cytomegalovirus promoter, VBE is coding sequence for amino acids 26-546 from Bombyx mori EcR inserted downstream of the VP16 transactivation domain, 6×EcRE is six copies of the ecdysone response element, lacZ encodes for the reporter enzyme β-galactosidase. Suhr, S. T., Gil, E. B., Senut M. C., Gage, F. H. (1998) Proc. Natl. Acad. Sci. USA 95, 7999-804. Swevers, L., Drevet, J. R., Lunke, M. D., Iatrou, K. (1995) Insect Biochem. Mol. Biol. 25, 857-866.

[2] = target: T2, GAL4 DBD-CfEcR(DEF)/VP16AD-MmRXRE (Choristoneura fumiferana, UniProt O77240); test: cell-based; settings: for 13B3 Rel Max FI: maximum fold induction at any concentration relative to that of GS-E ligand
T2 sequence (O77240 1-513): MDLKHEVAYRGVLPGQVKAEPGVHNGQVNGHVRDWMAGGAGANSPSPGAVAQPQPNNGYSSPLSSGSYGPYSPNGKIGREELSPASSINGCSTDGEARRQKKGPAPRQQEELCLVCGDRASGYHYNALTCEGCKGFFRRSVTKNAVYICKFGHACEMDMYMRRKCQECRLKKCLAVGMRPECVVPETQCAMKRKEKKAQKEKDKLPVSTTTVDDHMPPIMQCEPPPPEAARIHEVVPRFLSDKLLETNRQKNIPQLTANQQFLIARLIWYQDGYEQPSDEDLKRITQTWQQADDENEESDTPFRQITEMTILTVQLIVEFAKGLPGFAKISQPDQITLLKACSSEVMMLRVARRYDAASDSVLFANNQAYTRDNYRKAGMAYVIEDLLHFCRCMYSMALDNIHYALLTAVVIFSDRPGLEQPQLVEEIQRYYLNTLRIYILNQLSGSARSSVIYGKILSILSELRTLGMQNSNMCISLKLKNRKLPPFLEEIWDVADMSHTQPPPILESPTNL
From the text: GAL4 DBD-CfEcR(DEF)/VP16AD-MmRXRE: The wild-type D, E, and F domains from spruce budworm Choristoneura fumiferana EcR (“CfEcR-DEF”; SEQ ID NO: 1) were fused to a GAL4 DNA binding domain (“Gal4 DBD1-147”; nucleotides 31 to 471 of SEQ ID NO: 2) and placed under the control of the SV40e promoter of pM vector (PT3119-5, Clontech, Palo Alto, Calif.). The D and E domains from Mus Musculus RXR (“MmRXR-DE”; SEQ ID NO: 10) were fused to the transactivation domain from VP16 (“VP16AD”; SEQ ID NO: 5) and placed under the control of the SV40e promoter of the pVP16 vector (PT3127-5, Clontech, Palo Alto, Calif.).
CHO cells were transienty transfected with transcription cassettes for GAL4 DBD-CfEcR(DEF) and for VP16AD-MmRXRE controlled by SV40e promoters. Stably transfected cells were selected using Hygromycin. Individually isolated CHO cell clones were transiently transfected with a GAL4 RE-luciferase reporter (pMR-Luc, Stratagene, La Jolla, Calif.). The 13B3 clone was selected using Zeocin.
Cells were trypsinized and diluted to a concentration of 2.5×10^4 cells mL. 100 μL of cell suspension was placed in each well of a 96 well plate and incubated at 37° C. under 5% CO2 for 24 h. Ligand stock solutions were prepared in DMSO and diluted 300 fold for all treatments. Dose response testing consisted of 8 concentrations ranging from 33 μM to 0.01 μM.
Luciferase reporter gene expression was measured 48 h after cell treatment using Bright-Glo™ Luciferase Assay System from Promega (E2650). Luminescence was detected at room temperature using a Dynex MLX microtiter plate luminometer.
Fold inductions were calculated from single dose testing by dividing relative light units (RLU) in ligand treated cells by RLU in DMSO treated cells. BC50s were calculated from dose response data using a three-parameter logistic model.

| Compound | Fold Induction Average, Z3 Assay (33 μM) [1] | Fold Induction Average, 13B3 Assay (33 μM) [2] | also measured |
| --- | --- | --- | --- |
| Cc1cccc(C(=O)NC(C(=O)c2ccccc2)C(C)(C)C)c1C (centres unmarked) [Example 97] | 1 | 0 |  |
| COc1cccc(C(=O)C(NC(=O)c2cccc(OC)c2C)C(C)(C)C)c1 (centres unmarked) [Example 114] | 3 | 2 |  |
| COc1cccc(C(=O)NC2(C(=O)c3ccccc3)CCCC2)c1C [Example 1] | 71 |  | CC50 [1]: 2.67 µM; Z3 Rel Max FI [1]: 0.14; 13B3 Rel Max FI [2]: 0.00; EC50 ([2]; read-out: 13B3 EC50, average, dose response, three-parameter logistic model): > 33 µM; Fold Induction Average, 13B3 Assay (33 μM) ([2]; single dose 33 μM, RLU ligand treated / RLU DMSO treated cells): 3 |
| COc1ccc(C(=O)C(C)(CC(C)C)NC(=O)c2cccc(OC)c2C)cc1 (centres unmarked) [Example 118] | 1 | 0 |  |
| COc1cccc(C(=O)C(C)(Cc2ccccc2)NC(=O)c2cccc(OC)c2C)c1 (centres unmarked) [Example 100] | 2 | 0 |  |
| COc1cccc(C(=O)NC2(C(=O)c3cccc(C)c3)CCC3(CC2)OCCO3)c1C [Example 35] | 9 | 2 |  |
| COc1cccc(C(=O)NC(C(=O)c2cccc(C)c2)(c2ccccc2)C(C)C)c1C (centres unmarked) [Example 57] | 8 | 0 |  |
| COc1cccc(C(=O)NC(C(=O)c2cccc(C)c2)C(C)(C)C)c1C (centres unmarked) [Example 113] | 4 | 1 |  |
| CC(C)(NC(=O)c1ccccc1)C(=O)c1ccccc1 [Example 104] | 1 | 0 |  |
| CC(=O)NC(C(=O)c1ccccc1)c1ccc(C)cc1 (centres unmarked) [Example 93] | 1 | 0 |  |
| COc1cccc(C(=O)NC(C)(C(=O)c2ccc3c(c2)OCO3)C(C)C)c1C (centres unmarked) [Example 111] | 1 | 0 |  |
| CC(=O)NC(C(=O)c1ccc(C)cc1)c1ccccc1 (centres unmarked) [Example 92] | 1 | 0 |  |
| Cc1nc2ncc(C(=O)NC3(C(=O)c4ccccc4)CCCC3)c(C)n2n1 [Example 103] |  | 0 |  |
| COc1cccc(C(=O)NC2(C(=O)c3cccc(C)c3)CCC(=O)CC2)c1C [Example 61] | 102 | 0 |  |
| COc1cccc(C(=O)NC2(C(=O)c3cccc(C)c3)CCN(C(=O)OC(C)(C)C)CC2)c1C [Example 109] | 3 | 0 |  |
| COc1cccc(C(=O)C2(NC(=O)c3cccc(OC)c3C)CCCC2)c1 [Example 5] |  |  | EC50 [2]: > 33 µM; 13B3 Rel Max FI [2]: 0.02 |
| CC(C)(C)C(NC(=O)c1ccc([N+](=O)[O-])cc1)C(=O)c1ccccc1 (centres unmarked) [Example 98] | 1 | 0 |  |
| COc1cccc(C(=O)NC2(C(=O)c3ccccc3C)CCCC2)c1C [Example 39] | 30 | 24 |  |
| COc1cccc(C(=O)NC(C)(C(C)=O)C(C)C)c1C (centres unmarked) [Example 112] | 1 | 2 |  |
| COc1cccc(C(=O)NC(C)(C)C(=O)c2ccccc2)c1 [Example 107] | 1 | 2 |  |
| CCc1ccc(C(=O)NC2(C(=O)c3cc(C)cc(C)c3)CCCCC2)cc1 [Example 175] |  |  | CC50 [1]: 1.51 µM; Z3 Rel Max FI [1]: 0.63 |
| CCC(CC)(NC(=O)c1cccc(OC)c1C)C(=O)c1ccccc1C [Example 36] | 4 | 0 |  |
| COc1cccc(C(=O)C2(NC(=O)c3cccc(OC)c3C)CC2)c1 [Example 99] | 1 | 0 |  |
| CCc1ccc(C(=O)NC(C)(C)C(=O)c2ccccc2)cc1 [Example 108] | 2 | 1 |  |
| CCc1ccc(C(=O)NC2(C(=O)c3ccccc3)CCCC2)cc1 [Example 3] |  |  | EC50 [2]: > 33 µM; 13B3 Rel Max FI [2]: 0.00 |
